# Like-named read-outs stand apart in the source and are kept apart here.
# Assays:
# [1] = tested on: 134 cancer cell lines; experiment: Cell viability assay (ATPlite, 72 hours), IC50 on cancer cell line panel
# [2] = target: panel of 255 wild-type kinases (Homo sapiens, UniProt P29317); experiment: Kinase panel profiling at 1 µmol/L (MSA or IMAP), percentage inhibition; assay type: biochemical; settings: kinase EPHA2; 1 µmol/L single concentration; read-out: %-inhibition at 1 µmol/L, EPHA2
# [3] = target: panel of 255 wild-type kinases (Homo sapiens, UniProt Q9Y6M4); experiment: as above; assay type: biochemical; settings: kinase CK1γ3; 1 µmol/L single concentration; read-out: %-inhibition at 1 µmol/L, CK1γ3
# [4] = tested on: AP-1060 (ETV6-NTRK3); experiment: Cell viability assay; settings: read-out: IC50 in cell proliferation assay
smiles,measurement,setting,value
CCN1C(=O)N(c2c(F)c(OC)cc(OC)c2F)Cc2cnc3[nH]c(CN4CCOCC4)cc3c21 [pemigatinib],IC50,"[1]; HEC-6, read-out: IC50 in cell proliferation assay",2490 nM
same,IC50,"[1]; Homo sapiens, 769-P, read-out: IC50 in cell proliferation assay",2530 nM
same,IC50,"[1]; Homo sapiens, 786-0, read-out: IC50 in cell proliferation assay",2710 nM
same,IC50,"[1]; Homo sapiens, A 172, read-out: IC50 in cell proliferation assay",29 nM
same,IC50,"[1]; Homo sapiens, A204, read-out: IC50 in cell proliferation assay",29 nM
same,IC50,"[1]; Homo sapiens, A498, read-out: IC50 in cell proliferation assay",1130 nM
same,IC50,"[1]; Homo sapiens, A549, read-out: IC50 in cell proliferation assay",4020 nM
same,IC50,"[1]; Homo sapiens, A704, read-out: IC50 in cell proliferation assay",1280 nM
same,IC50,"[1]; Homo sapiens, A-375, read-out: IC50 in cell proliferation assay",3030 nM
same,IC50,"[1]; Homo sapiens, A-427, read-out: IC50 in cell proliferation assay",1.43 nM
same,IC50,"[1]; Homo sapiens, ACHN, read-out: IC50 in cell proliferation assay",989 nM
same,IC50,"[1]; Homo sapiens, AN3-CA, read-out: IC50 in cell proliferation assay",22 nM
same,IC50,"[1]; Homo sapiens, ASPC1, read-out: IC50 in cell proliferation assay",3160 nM
same,IC50,"[1]; Homo sapiens, AU565, read-out: IC50 in cell proliferation assay",3260 nM
same,IC50,"[1]; Homo sapiens, BT-20, read-out: IC50 in cell proliferation assay",2840 nM
same,IC50,"[1]; Homo sapiens, BT-474, read-out: IC50 in cell proliferation assay",> 31600 nM
same,IC50,"[1]; Homo sapiens, BT-549, read-out: IC50 in cell proliferation assay",17 nM
same,IC50,"[1]; Homo sapiens, BXPC-3, read-out: IC50 in cell proliferation assay",1200 nM
same,IC50,"[1]; Homo sapiens, C-33-A, read-out: IC50 in cell proliferation assay",2710 nM
same,IC50,"[1]; Homo sapiens, CAL-27, read-out: IC50 in cell proliferation assay",2650 nM
same,IC50,"[1]; Homo sapiens, CCF-STTG1, read-out: IC50 in cell proliferation assay",> 31600 nM
same,IC50,"[1]; Homo sapiens, CCRF-CEM, read-out: IC50 in cell proliferation assay",3600 nM
same,IC50,"[1]; Homo sapiens, COLO 205, read-out: IC50 in cell proliferation assay",2980 nM
same,IC50,"[1]; Homo sapiens, COLO-829, read-out: IC50 in cell proliferation assay",3230 nM
same,IC50,"[1]; Homo sapiens, DLD-1, read-out: IC50 in cell proliferation assay",2270 nM
same,IC50,"[1]; Homo sapiens, DU-145, read-out: IC50 in cell proliferation assay",1600 nM
same,IC50,"[1]; Homo sapiens, DU-4475, read-out: IC50 in cell proliferation assay",5830 nM
same,IC50,"[1]; Homo sapiens, Daoy, read-out: IC50 in cell proliferation assay",1400 nM
same,IC50,"[1]; Homo sapiens, DoTc2-4510, read-out: IC50 in cell proliferation assay",3190 nM
same,IC50,"[1]; Homo sapiens, EOL1, read-out: IC50 in cell proliferation assay",1110 nM
same,IC50,"[1]; Homo sapiens, FaDu, read-out: IC50 in cell proliferation assay",2600 nM
same,IC50,"[1]; Homo sapiens, G-361, read-out: IC50 in cell proliferation assay",2570 nM
same,IC50,"[1]; Homo sapiens, HCC827, read-out: IC50 in cell proliferation assay",3200 nM
same,IC50,"[1]; Homo sapiens, HCC4006, read-out: IC50 in cell proliferation assay",2620 nM
same,IC50,"[1]; Homo sapiens, HCT-15, read-out: IC50 in cell proliferation assay",2820 nM
same,IC50,"[1]; Homo sapiens, HCT-116, read-out: IC50 in cell proliferation assay",2400 nM
same,IC50,"[1]; Homo sapiens, HEC-1, read-out: IC50 in cell proliferation assay",2370 nM
same,IC50,"[1]; Homo sapiens, HEC-1B, read-out: IC50 in cell proliferation assay",2740 nM
same,IC50,"[1]; Homo sapiens, HL-60, read-out: IC50 in cell proliferation assay",2450 nM
same,IC50,"[1]; Homo sapiens, HT, read-out: IC50 in cell proliferation assay",> 31600 nM
same,IC50,"[1]; Homo sapiens, HT-1080, read-out: IC50 in cell proliferation assay",1060 nM
same,IC50,"[1]; Homo sapiens, Hs746T, read-out: IC50 in cell proliferation assay",1840 nM
same,IC50,"[1]; Homo sapiens, Hs-578T, read-out: IC50 in cell proliferation assay",3780 nM
same,IC50,"[1]; Homo sapiens, HuTu80, read-out: IC50 in cell proliferation assay",3.58 nM
same,IC50,"[1]; Homo sapiens, J82, read-out: IC50 in cell proliferation assay",1130 nM
same,IC50,"[1]; Homo sapiens, Jurkat E6.1, read-out: IC50 in cell proliferation assay",2890 nM
same,IC50,"[1]; Homo sapiens, K562, read-out: IC50 in cell proliferation assay",3770 nM
same,IC50,"[1]; Homo sapiens, KATO III, read-out: IC50 in cell proliferation assay",1.77 nM
same,IC50,"[1]; Homo sapiens, KG-1, read-out: IC50 in cell proliferation assay",1.08 nM
same,IC50,"[1]; Homo sapiens, KLE, read-out: IC50 in cell proliferation assay",1820 nM
same,IC50,"[1]; Homo sapiens, KMS-11, read-out: IC50 in cell proliferation assay",16 nM
same,IC50,"[1]; Homo sapiens, KU812, read-out: IC50 in cell proliferation assay",4660 nM
same,IC50,"[1]; Homo sapiens, Kasumi 1, read-out: IC50 in cell proliferation assay",1290 nM
same,IC50,"[1]; Homo sapiens, LC-2-ad, read-out: IC50 in cell proliferation assay",3280 nM
same,IC50,"[1]; Homo sapiens, LNCaP-Clone-FGC, read-out: IC50 in cell proliferation assay",3090 nM
same,IC50,"[1]; Homo sapiens, LS174T, read-out: IC50 in cell proliferation assay",3690 nM
same,IC50,"[1]; Homo sapiens, LS-411N, read-out: IC50 in cell proliferation assay",5900 nM
same,IC50,"[1]; Homo sapiens, LoVo, read-out: IC50 in cell proliferation assay",2700 nM
same,IC50,"[1]; Homo sapiens, MCF7, read-out: IC50 in cell proliferation assay",> 31600 nM
same,IC50,"[1]; Homo sapiens, MDA-MB-231, read-out: IC50 in cell proliferation assay",4510 nM
same,IC50,"[1]; Homo sapiens, MDA-MB-453, read-out: IC50 in cell proliferation assay",> 31600 nM
same,IC50,"[1]; Homo sapiens, MDA-MB-468, read-out: IC50 in cell proliferation assay",729 nM
same,IC50,"[1]; Homo sapiens, MG-63, read-out: IC50 in cell proliferation assay",11 nM
same,IC50,"[1]; Homo sapiens, MIA PaCa-2, read-out: IC50 in cell proliferation assay",5730 nM
same,IC50,"[1]; Homo sapiens, MKN-45, read-out: IC50 in cell proliferation assay",2320 nM
same,IC50,"[1]; Homo sapiens, MOLM-13, read-out: IC50 in cell proliferation assay",3540 nM
same,IC50,"[1]; Homo sapiens, MOLT-4, read-out: IC50 in cell proliferation assay",3590 nM
same,IC50,"[1]; Homo sapiens, MV4-11, read-out: IC50 in cell proliferation assay",2490 nM
same,IC50,"[1]; Homo sapiens, MeWo, read-out: IC50 in cell proliferation assay",2810 nM
same,IC50,"[1]; Homo sapiens, NCCIT, read-out: IC50 in cell proliferation assay",22 nM
same,IC50,"[1]; Homo sapiens, NCI-H82, read-out: IC50 in cell proliferation assay",1400 nM
same,IC50,"[1]; Homo sapiens, NCI-H460, read-out: IC50 in cell proliferation assay",2750 nM
same,IC50,"[1]; Homo sapiens, NCI-H661, read-out: IC50 in cell proliferation assay",2440 nM
same,IC50,"[1]; Homo sapiens, NCI-H716, read-out: IC50 in cell proliferation assay",2.34 nM
same,IC50,"[1]; Homo sapiens, NCI-H1650, read-out: IC50 in cell proliferation assay",3300 nM
same,IC50,"[1]; Homo sapiens, NCI-H1975, read-out: IC50 in cell proliferation assay",2970 nM
same,IC50,"[1]; Homo sapiens, NCI-H2228, read-out: IC50 in cell proliferation assay",2770 nM
same,IC50,"[1]; Homo sapiens, OVCAR-3, read-out: IC50 in cell proliferation assay",3130 nM
same,IC50,"[1]; Homo sapiens, PFSK-1, read-out: IC50 in cell proliferation assay",3860 nM
same,IC50,"[1]; Homo sapiens, RL95-2, read-out: IC50 in cell proliferation assay",2380 nM
same,IC50,"[1]; Homo sapiens, RPMI-7951, read-out: IC50 in cell proliferation assay",2980 nM
same,IC50,"[1]; Homo sapiens, RS4-11, read-out: IC50 in cell proliferation assay",1330 nM
same,IC50,"[1]; Homo sapiens, Rec1, read-out: IC50 in cell proliferation assay",3530 nM
same,IC50,"[1]; Homo sapiens, SHP77, read-out: IC50 in cell proliferation assay",> 31600 nM
same,IC50,"[1]; Homo sapiens, SK-BR-3, read-out: IC50 in cell proliferation assay",835 nM
same,IC50,"[1]; Homo sapiens, SK-N-AS, read-out: IC50 in cell proliferation assay",2830 nM
same,IC50,"[1]; Homo sapiens, SK-N-FI, read-out: IC50 in cell proliferation assay",3040 nM
same,IC50,"[1]; Homo sapiens, SK-N-MC, read-out: IC50 in cell proliferation assay",2600 nM
same,IC50,"[1]; Homo sapiens, SK-N-SH, read-out: IC50 in cell proliferation assay",2230 nM
same,IC50,"[1]; Homo sapiens, SNU-5, read-out: IC50 in cell proliferation assay",5260 nM
same,IC50,"[1]; Homo sapiens, SNU-16, read-out: IC50 in cell proliferation assay",2 nM
same,IC50,"[1]; Homo sapiens, SNU-C2B, read-out: IC50 in cell proliferation assay",> 31600 nM
same,IC50,"[1]; Homo sapiens, SU-DHL-1, read-out: IC50 in cell proliferation assay",2800 nM
same,IC50,"[1]; Homo sapiens, SU-DHL-6, read-out: IC50 in cell proliferation assay",5120 nM
same,IC50,"[1]; Homo sapiens, SUP-T1, read-out: IC50 in cell proliferation assay",4280 nM
same,IC50,"[1]; Homo sapiens, SW48, read-out: IC50 in cell proliferation assay",8070 nM
same,IC50,"[1]; Homo sapiens, SW480, read-out: IC50 in cell proliferation assay",2960 nM
same,IC50,"[1]; Homo sapiens, SW626, read-out: IC50 in cell proliferation assay",3560 nM
same,IC50,"[1]; Homo sapiens, SW780, read-out: IC50 in cell proliferation assay",8 nM
same,IC50,"[1]; Homo sapiens, SW837, read-out: IC50 in cell proliferation assay",6230 nM
same,IC50,"[1]; Homo sapiens, SW872, read-out: IC50 in cell proliferation assay",2500 nM
same,IC50,"[1]; Homo sapiens, SW900, read-out: IC50 in cell proliferation assay",1920 nM
same,IC50,"[1]; Homo sapiens, SW948, read-out: IC50 in cell proliferation assay",1930 nM
same,IC50,"[1]; Homo sapiens, SW982, read-out: IC50 in cell proliferation assay",1280 nM
same,IC50,"[1]; Homo sapiens, SW-620, read-out: IC50 in cell proliferation assay",3490 nM
same,IC50,"[1]; Homo sapiens, T98G, read-out: IC50 in cell proliferation assay",3540 nM
same,IC50,"[1]; Homo sapiens, TCC-SUP, read-out: IC50 in cell proliferation assay",606 nM
same,IC50,"[1]; Homo sapiens, THP-1, read-out: IC50 in cell proliferation assay",4230 nM
same,IC50,"[1]; Homo sapiens, U2OS, read-out: IC50 in cell proliferation assay",2950 nM
same,IC50,"[1]; Homo sapiens, U-87 MG, read-out: IC50 in cell proliferation assay",3120 nM
same,IC50,"[1]; Homo sapiens, U-118-MG, read-out: IC50 in cell proliferation assay",4090 nM
same,IC50,"[1]; Homo sapiens, UMUC3, read-out: IC50 in cell proliferation assay",1600 nM
same,IC50,"[1]; Hs766T, read-out: IC50 in cell proliferation assay",5660 nM
same,IC50,"[1]; L-82, read-out: IC50 in cell proliferation assay",4100 nM
same,IC50,"[1]; Rh30, read-out: IC50 in cell proliferation assay",137 nM
same,inhibition at 1 µM,[2],-3.69%
same,inhibition at 1 µM,[3],-1.18%
same,IC50,[4],3420 nM
